Here are results for 1 molecule from ChEMBL document CHEMBL6115017, “Discovery of DFV890, a Potent Sulfonimidamide-Containing NLRP3 Inflammasome Inhibitor” (J Med Chem, 2025).

Usually AUC(0-inf) stands for total exposure, with the tail of the curve extrapolated. In general, fraction unbound refers to free concentration divided by total concentration. As a reminder, the solubility is the concentration that dissolves in the medium under given conditions. As usually defined, the pIC50 is −log10 of the IC50, conventionally taken in molar units. In general, half-life refers to how long it takes for the measured level to halve.

Structures are written as SMILES. pIC50: −log10 of the molar value. Converted amounts (≈) assume the structure as drawn. The source made the active and inactive calls. The rule behind the calls is not given here. Where only a bound is given, the exact number is not on record here.

For data set [1], the system named is THP-1. Briefly: Antagonist activity against […] in PMA-primed human THP-1 cells assessed as inhibition of PrgI-induced IL-1beta release measured pretreated for 1 hr followed by induced with LFn-PrgI measured after 2 hr incubation by HTRF analysis. To be noted: time 3.0 hrs. In kind it is cell-based.
The nature of data set [2]: AUC (infinity) in C57 BL6 mouse at 10 mg/kg, po by LC-MS analysis. To be noted: in vivo. In kind it is ADME, organism-based.
Data set [3] in a line: Fraction unbound in human plasma. The data set is classed as ADME, cell-free.
Data set [4] can be described thus: Solubility of the compound in PBS at pH 7.4. The data set is classed as physicochemical.
Data set [5] deals with T1, Cytochrome P450 1A2 (Homo sapiens, UniProt P05177).
T1 sequence (P05177 whole entry): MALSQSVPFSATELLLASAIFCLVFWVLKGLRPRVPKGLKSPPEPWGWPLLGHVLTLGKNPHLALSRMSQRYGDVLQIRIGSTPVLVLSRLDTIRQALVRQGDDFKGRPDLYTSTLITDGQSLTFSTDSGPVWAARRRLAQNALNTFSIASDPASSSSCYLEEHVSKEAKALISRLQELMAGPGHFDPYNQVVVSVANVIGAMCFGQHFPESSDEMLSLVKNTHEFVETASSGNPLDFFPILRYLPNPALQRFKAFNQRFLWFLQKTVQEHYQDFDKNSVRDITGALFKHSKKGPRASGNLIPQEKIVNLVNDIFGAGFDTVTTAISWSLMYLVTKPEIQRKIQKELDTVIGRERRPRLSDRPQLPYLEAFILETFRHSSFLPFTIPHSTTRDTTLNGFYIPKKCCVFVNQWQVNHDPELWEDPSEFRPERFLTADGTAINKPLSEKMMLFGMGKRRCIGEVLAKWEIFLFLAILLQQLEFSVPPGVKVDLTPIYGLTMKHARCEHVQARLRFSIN
Put plainly: Inhibition of CYP1A2 (unknown origin). In kind it is ADME.

The nature of data set [6]: Half life in Cynomolgus monkey at 5 mg/kg, po and 2 mg/kg, iv by LC-MS analysis. The data set is classed as ADME, organism-based, Macaca fascicularis. To be noted: in vivo.
Data set [7] relates to Mus musculus. Briefly: In vivo inhibition of NLRP3 dependent cytokine production in po dosed LPS-challenged C57BL/6 mouse model assessed as inhibition of LPS-induced TNFalpha production in blood pretreated for 1 hr followed by induced with LPS measured after 5 hrs by cytokine bead assay. In kind it is functional, organism-based. As to conditions: time 6.0 hrs.
Data set [8] has as its target T1, Cytochrome P450 1A2. Put plainly: Inhibition of CYP1A2 (unknown origin) by time dependent inhibition assay. In kind it is ADME.
Data set [9] deals with Mus musculus. Briefly: In vivo inhibition of NLRP3 dependent cytokine production in po dosed LPS-challenged C57BL/6 mouse model assessed as inhibition of LPS-induced IL-18 production in blood pretreated for 1 hr followed by induced with LPS measured after 5 hrs by cytokine bead assay. The data set is classed as functional, organism-based. As to conditions: time 6.0 hrs.

Regarding `CC(C)(O)c1ncc([S@](N)(=O)=NC(=O)Nc2c3c(cc4c2CCC4)CCC3)s1`, in data set [1], the result was inactive. The molecule also registered an AUC(0-inf) in [2] of 261 µg·h/mL. The molecule also came in with a fraction unbound in [3] of 0.006. For the same molecule, in data set [4], the concentration in solution (solubility) was 0.021 mg/mL (≈ 49.9 µM). Also, the pIC50 in data set [5] was less than 4.22. In addition, in data set [6], the half-life was 5.2 h. In addition, the inhibition entry in data set [7] and in data set [9] was “Dose-dependent-effect” each time. For the same molecule, the TDI entry in data set [8] is recorded as “Not_active”.
